Legend:
[1] = Stability of the samples; details: TABLE 1 and TABLE 2; symbols not defined
[2] = target: mushroom tyrosinase; assay: Examination for inhibition of tyrosinase activity (L-DOPA substrate, absorbance at 475 nm); assay type: biochemical; details: for IC50: L-DOPA substrate, pH 8.8 phosphate buffer, 1.5 minutes, room temperature, read-out: ID50 (inhibition of tyrosinase activity)
Description: (1) EXAMINATION FOR INHIBITION OF TYROSINASE ACTIVITY
10 mg L-DOPA (guaranteed reagent) is dissolved at the time of examination in 20 ml of phosphate buffer described in 3) below and prepared 0.05% L-DOPA solution.
3) 0.1-M phosphate buffer
The buffer was prepared at pH 8.8.
Preparation of sample solution
The sample described in TABLE 1 below are diluted by ethanol to the concentration with 3 standards.
The measurement of the tyrosinase activity was carried out by a modified method of Pomerantz, using L-DOPA (guaranteed reagent) as the substrate and measuring the absorbance at 475 nm at which the absorption of dihydroxyphenylalanine chrome (reaction product) exists.
Namely, 1.0 ml of the L-DOPA solution and 1.8 ml of the phosphate buffer were added in 0.1 ml of the sample solutions. 0.1 ml of tyrosinase solution was added and mixed for reaction for 1.5 minutes at room temperature. The absorbance at 475 nm was measured by using a spectrophotometer (type 220 A Spectrophotometer, HITACHI corporation) and the measured value was expressed by T.
Also, 1.0 ml of distilled water instead of the L-DOPA solution. 1.8 ml of the phosphate buffers and 0.1 ml of the sample solutions were mixed, operated in the same way above, measured the absorbance and obtained the value T' as a reagent blank of the sample.
0.1 ml of ethanol instead of the sample solutions was added to the mixture of 1.0 mo of the L-DOPA and 1.8 ml of phosphate buffers, operated in the same way above and obtained the value C as a control.
1.8 ml of phosphate buffers and 0.1 ml of ethanol were added to 1.0 ml of distilled water instead of L-DOPA solution, operated in the same way above and obtained the value C' as a reagent blank of the control.
Inhibition of tyrosinase activity in each sample concentration were obtained by the following formula. The result was described as semilog graph of which a logarithmic scale indicates concentration of the sample and another scale indicates inhibition ratio of the activity.
Incidentally, the values T, T', C, and C' were measured three times and averages were used for the calculation.
Inhibition of tyrosinase activity (%)=100×[1-(T-T')/(C-C')]

[3] = test system: human skin; assay: Examination for bleaching effect (lotion applied to sunlight-exposed skin, depression effect to the chromatosis); assay type: in vivo; details: for bleaching effect: lotion with 1.0 wt % sample, each morning and evening, 8 weeks, 10 subjects per group; for improvement of bleaching effect by added ingredient (in words): added to preparation including 2-hydroxy alkoxybenzoic acid
Description: (2) E[…] BLEACHING EFFECT
Lotions were prepared by the following formula, using each sample. Namely, the alcohol phase and aqueous phase according to the following formula were prepared respectively, and both phases were mixed and dissolved according to an ordinal method. […]
______________________________________
Polyoxyethylene (25 moles) hydrogenated castor
Sodium hexametaphosphorate
Ion exchanged water balance
10 subjects for each group were exposed to sunlight in summer for 4 hours (2 hours×2 days). The lotion was applied to the facial skin of medialis brachii once each morning and evening […] after the day exposed to the sunlight for 8 weeks. After the application period, depression effect to the chromatosis which was caused by the ultraviolet irradiation was examined and evaluated, the degree of which was based on The following standard.
.circleincircle.: The number of the subjects who judged the result was "extremely effective" or "effective" were equal to or more than eight (Equal to or more than 80%).
.largecircle.: The number of the subjects who judged the result was "extremely effective" or "effective" were five to seven (from 50% less than 70%)
Δ: The number of the subjects who judged the result was "extremely effective" or "effective" were three to four (from 30% less than 40%)
×: The number of the subjects who judged the result was "extremely effective" or "effective" were less than two (less than 20%)
The inhibition effect to the tyrosinase activity which is essential for producing the melanine and bleaching effect for human skin by the 2-hydroxy alkoxybenzoic acid were examined by using samples described in TABLE 1.
The investigation for improvement of bleaching effect by adding other ingredients were carried out as described below.
Namely, the 2-hydroxy-3-methoxybenzoic acid as the 2-hydroxy alkoxy benzoic acid and sodium hyaluronate as the acid mucopolysaccharide were used for the examination of improvement of bleaching effect.
Lotions for the examination were prepared by adding 0.5 weight % of 2-hydroxy-3-methoxybenzoic acid into the alcohol phase and sodium hyaluronate into the aqueous phase of which the concentration as to be shown in TABLE 3.

[4] = test system: human skin; details: stated as known; cited from earlier work

Compound | stability [1] | IC50 [2] | bleaching effect [3] | further results
COc1cccc(C(=O)O)c1O [Example 1, 2-hydroxy-3-methoxybenzoic acid] | .smallcircle. | 21 mM | .circleincircle. (The number of the subjects who judged the result was "extremely effective" or "effective" were equal to or more than eight (Equal to or more than 80%)) | –
COc1ccc(C(=O)O)c(O)c1 [Example 2, 2-hydroxy-4-methoxybenzoic acid] | – | 1 mM | .circleincircle. (The number of the subjects who judged the result was "extremely effective" or "effective" were equal to or more than eight (Equal to or more than 80%)) | –
COc1ccc(O)c(C(=O)O)c1 [Example 3, 2-hydroxy-5-methoxybenzoic acid] | .smallcircle. | 4.5 mM | .circleincircle. (The number of the subjects who judged the result was "extremely effective" or "effective" were equal to or more than eight (Equal to or more than 80%)) | –
CCOc1ccc(C(=O)O)c(O)c1 [Example 4, 2-hydroxy-4-ethoxybenzoic acid] | .smallcircle. | 2 mM | .circleincircle. (The number of the subjects who judged the result was "extremely effective" or "effective" were equal to or more than eight (Equal to or more than 80%)) | –
Cc1cccc(C(=O)O)c1O [Example 5, 2-hydroxy-3-methylbenzoic acid] | – | – | .circleincircle. (The number of the subjects who judged the result was "extremely effective" or "effective" were equal to or more than eight (Equal to or more than 80%)) | –
Cc1ccc(C(=O)O)c(O)c1 [Example 6, 2-hydroxy-4-methylbenzoic acid] | .smallcircle. | – | .circleincircle. (The number of the subjects who judged the result was "extremely effective" or "effective" were equal to or more than eight (Equal to or more than 80%)) | –
Cc1ccc(O)c(C(=O)O)c1 [Example 7, 2-hydroxy-5-methylbenzoic acid] | .smallcircle. | – | .circleincircle. (The number of the subjects who judged the result was "extremely effective" or "effective" were equal to or more than eight (Equal to or more than 80%)) | –
CCc1ccc(C(=O)O)c(O)c1 [Example 8, 2-hydroxy-4-ethylbenzoic acid] | .smallcircle. | – | .circleincircle. (The number of the subjects who judged the result was "extremely effective" or "effective" were equal to or more than eight (Equal to or more than 80%)) | –
Oc1ccc(O)cc1 [a, hydroquinone, reference compound] | – | 4.2 mM | Δ (The number of the subjects who judged the result was "extremely effective" or "effective" were three to four (from 30% less than 40%)) | side effect (known) [4]: have side effect
O=C(O)c1cc(O)ccc1O [b, gentisic acid, reference compound] | Δ | 13.6 mM | Δ (The number of the subjects who judged the result was "extremely effective" or "effective" were three to four (from 30% less than 40%)) | side effect (known) [4]: have side effect
O=C1O[C@H]([C@@H](O)CO)C(O)=C1O [c, ascorbic acid, reference compound] | – | 0.3 mM | .smallcircle. | inhibition of tyrosinase activity (in words) [2]: high inhibition effect; bleaching effect (in words) ([3]; in vivo): rather low level
O=C(O)CN(CCN(CC(=O)O)CC(=O)O)CC(=O)O [disodium ethylenediamine tetraacetate] | – | – | – | improvement of bleaching effect by added ingredient (in words) [3]: excellent improvement effect of bleaching
CCOC(=O)c1ccc(O)cc1 [ethyl p-hydroxybenzoate] | – | – | – | improvement of bleaching effect by added ingredient (in words) [3]: excellent improvement effect of bleaching
COC(=O)c1ccc(O)cc1 [methyl p-hydroxybenzoate] | – | – | – | improvement of bleaching effect by added ingredient (in words) [3]: excellent improvement effect of bleaching
COc1ccc(C(=O)[O-])c(O)c1.[K+] [potassium 2-hydroxy-4-methoxybenzoate] | – | – | – | subjects who judged the effect was "extremely effective" or "effective" ([3]; bleaching effect examination, lotion): 80%
CC(=O)Oc1c(C)c(C)c2c(c1C)CCC(C)(CCC[C@H](C)CCC[C@H](C)CCCC(C)C)O2 (some centres unmarked) [tocopherol acetate] | – | – | – | improvement of bleaching effect by added ingredient (in words) [3]: excellent improvement effect of bleaching
sodium hyaluronate | – | – | – | improvement of bleaching effect by added ingredient (in words) [3]: extremely improved

— patent US5580549A, “External preparation for skin” (priority 1992, dated 1996)
